The target in data set [1] is T1, M3 muscarinic receptor (Rattus norvegicus, UniProt P08483).
Data set [2] deals with T1, M3 muscarinic receptor. Description: biochemical. As to conditions: Receptor Binding Assay M3 pKi.
Another data set has as its target T2, M2 muscarinic receptor (Rattus norvegicus, UniProt P10980).
T2 construct: Submandibular glands and heart were isolated and placed in ice cold homogenising buffer; from tissue; host or cells: rat heart membrane homogenate
T2 sequence (P10980 1-466): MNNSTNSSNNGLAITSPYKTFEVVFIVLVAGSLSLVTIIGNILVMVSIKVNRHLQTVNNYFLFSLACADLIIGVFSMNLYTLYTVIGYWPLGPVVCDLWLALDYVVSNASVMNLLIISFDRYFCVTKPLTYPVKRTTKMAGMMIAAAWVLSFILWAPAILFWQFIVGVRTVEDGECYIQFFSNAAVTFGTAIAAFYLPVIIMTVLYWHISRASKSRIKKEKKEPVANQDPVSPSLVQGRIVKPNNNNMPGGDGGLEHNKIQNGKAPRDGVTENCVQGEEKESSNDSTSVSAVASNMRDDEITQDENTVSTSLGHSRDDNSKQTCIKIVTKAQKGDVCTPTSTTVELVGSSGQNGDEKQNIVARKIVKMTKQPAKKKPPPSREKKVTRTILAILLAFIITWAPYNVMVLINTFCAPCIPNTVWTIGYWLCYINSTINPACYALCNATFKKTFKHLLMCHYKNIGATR
The experiment in a line: biochemical. The class given is binding. Conditions: Receptor Binding Assay M2 pKi.

The test system of a further data set is bladder pressure. Description: In vivo anaesthetized rabbit, carbachol-induced bladder pressure. As to conditions: bladder selectivity expressed as fold of selectivity of oxybutynin in the same model.

One may read the Ki as the dissociation constant of the complex between target and ligand, obtained from inhibition or displacement. High values mean weaker binding, low ones tighter binding. By melting point is commonly meant the temperature, or range, at which the solid turns liquid.

T1 sequence (P08483 whole entry): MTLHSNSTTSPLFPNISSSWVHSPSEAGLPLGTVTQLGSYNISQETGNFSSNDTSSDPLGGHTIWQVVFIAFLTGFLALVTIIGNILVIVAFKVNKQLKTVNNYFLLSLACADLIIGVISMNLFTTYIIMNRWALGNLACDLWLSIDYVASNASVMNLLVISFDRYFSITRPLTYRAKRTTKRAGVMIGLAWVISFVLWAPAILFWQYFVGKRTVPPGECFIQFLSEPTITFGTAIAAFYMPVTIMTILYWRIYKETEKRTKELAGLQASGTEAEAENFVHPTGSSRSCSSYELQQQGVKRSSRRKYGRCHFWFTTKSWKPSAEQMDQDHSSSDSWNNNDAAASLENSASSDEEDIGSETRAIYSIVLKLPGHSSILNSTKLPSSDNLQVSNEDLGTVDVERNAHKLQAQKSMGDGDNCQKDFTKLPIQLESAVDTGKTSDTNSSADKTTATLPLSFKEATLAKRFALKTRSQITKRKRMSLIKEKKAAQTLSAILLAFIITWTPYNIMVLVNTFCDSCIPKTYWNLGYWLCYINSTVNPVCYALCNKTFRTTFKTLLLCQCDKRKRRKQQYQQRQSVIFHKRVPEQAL

As for `O=C(NC[C@@H]1[C@H]2CN(Cc3ccccc3)C[C@@H]12)C(O)(c1ccccc1)C1CCCC1` (stereo partly drawn) [Compound No. 3, (1α,5α,6α)-N-[3-benzyl-3-azabicyclo[3.1.0]hexyl-6(aminomethyl)-yl]-2-hydroxy-2-cyclopentyl-2-phenyl acetamide], the melting point lay in the range of 131 to 134 °C. The “Receptor Binding Assay Selectivity M2/M3” value at M3 muscarinic receptor [1] was 16. The compound further had a Ki at M3 muscarinic receptor [2] of 5.89 nM. In addition, the Ki at M2 muscarinic receptor was 95.5 nM.
With `O=C(NCC1C2CN(Cc3ccccc3)CC12)[C@](O)(c1ccccc1)C1CCCC1.O=C(O)C(O)C(O)C(=O)O` (stereo partly drawn) [Compound No. 35, (2R)-(+)-(1α,5α,6α)-N-[3-benzyl-3-azabicyclo[3.1.0]hexyl-6-(aminomethyl)-yl]-2-hydroxy-2-cyclopentyl-2-phenylacetamide. L(+)-tartrate salt], in the data set with bladder pressure, the “Fold of Oxybutynin” value was 3.45.
On to `CC(c1ccccc1)N1CC2C(CNC(=O)C(O)(c3ccccc3)C3CCCC3)C2C1` (stereo not drawn) [Compound No. 22, (1α,5α,6α)-N-[3-(1-phenylethyl)-3-azabicyclo[3.1.0]hexyl-6-(aminomethyl)-yl]-2-hydroxy-2-cyclopentyl-2-phenyl acetamide], for which the “Receptor Binding Assay Selectivity M2/M3” value at M3 muscarinic receptor [1] is 14.8. In addition, the results for the Ki at M3 muscarinic receptor [2] and at M2 muscarinic receptor were 5.89 nM and 87.1 nM, respectively.
In the same order, the values of `O=C(NCC1C2CN(Cc3ccccc3)CC12)C(O)(c1ccccc1)C1CCCCC1` (single isomer, unassigned) [Compound No. 28] are 3.5, 3.98 nM and 14.1 nM.
For the compound `O=C(NC[C@@H]1[C@H]2CN(Cc3ccccc3)C[C@@H]12)C(O)(c1ccccc1)c1ccccc1` [Compound No. 1, (1α,5α,6α)-N-[3-benzyl-3-azabicyclo[3.1.0]hexyl-6-(aminomethyl)-yl]-2-hydroxy-2,2-diphenyl acetamide], the “Receptor Binding Assay Selectivity M2/M3” value at M3 muscarinic receptor [1] was found to be 10. The Ki is 25.1 nM on M3 muscarinic receptor [2] and 257 nM at M2 muscarinic receptor.
The like results for `O=C(NC[C@@H]1[C@H]2CN(Cc3ccccc3)C[C@@H]12)C(O)(c1ccccc1)C1CC1` (stereo partly drawn) [Compound No. 38, (1α,5α,6α)-N-[3-benzyl-3-azabicyclo[3.1.0]hexyl-6-(aminomethyl)-yl]-2-hydroxy-2-cyclopropyl-2-phenylacetamide] were, in that order, 6.6, 64.6 nM and 427 nM.
Consider `O=C(NCC1C2CN(Cc3ccccc3)CC12)[C@@](O)(c1ccccc1)C1CCCC1.O=C(O)C(O)C(O)C(=O)O` (stereo partly drawn) [Compound No. 36, (2S)-(−)-(1α,5α,6α)-N-[3-benzyl-3-azabicyclo[3.1.0]hexyl-6(aminomethyl)-yl]-2-hydroxy-2-cyclopentyl-2-phenylacetamide. L(+)-tartrate salt], for which, in the data set with bladder pressure, the “Fold of Oxybutynin” value came out at 2.17.
Take `CC(NC(=O)C(O)(c1ccccc1)C1CCCC1)[C@H]1[C@@H]2CN(Cc3ccccc3)C[C@@H]21` (stereo partly drawn) [Compound No. 25, (1α,5α,6α)-N-[3-benzyl-3-azabicyclo[3.1.0]hexyl-6-(1-aminoethyl)-yl]-2-hydroxy-2-cyclopentyl-2-phenyl acetamide]: on M3 muscarinic receptor [1], the “Receptor Binding Assay Selectivity M2/M3” value was determined as 17. Also, the Ki is 25.1 nM on M3 muscarinic receptor [2] and 427 nM at M2 muscarinic receptor.
The like results for `CC(C)=CCCN1CC2C(CNC(=O)C(O)(c3ccccc3)C3CCCC3)C2C1` (stereo not drawn) [Compound No. 16, (1α,5α,6α)-N-[3-(4-methyl-3-pentenyl)-3-azabicyclo[3.1.0]hexyl-6-(aminomethyl)-yl]-2-hydroxy-2-cyclopentyl-2-phenyl acetamide] were, in that order, 7.6, 23.4 nM and 178 nM.

These data come from patent US20070004791A1, “3,6-disubstituted azabicyclo {3.1.0} hexane derivatives useful as muscarnic receptor antagonists” (priority 2002, published 2007).
